Data on 16 molecules can be found in patent US12655141B2, “Inhibitors of notch signaling pathway and use thereof in treatment of cancers” (Cellestia Biotech AG, priority 2019, dated 2026).

The test system of assay [1] is NOTCH positive/driven human T cell acute lymphoblastic leukemia cell line RPMI 8402. As to the kind of experiment: Alamar blue anti-proliferative assay. The note with it: for pIC50: Homo sapiens, RPMI 8402, RPMI8402, 72 hours, concentration range 0.01-10 μM. The format is cell-based. The method, then:
(§1) Alamarblue® and PrestoBlue proliferation assays were performed to determine the growth kinetics of Notch inhibitor treated cells. Alamar Blue® and PrestoBlue consists of a cell permeable substrate resazurin. In metabolically active and proliferating cells, resazurin is converted to resorufin due to an intrinsic reducing power of live cells and produces a red fluorescence. Therefore production of resorufin serves as an indicator of the viability of the cell population.
Proliferation assays were performed by seeding 5000 cells/well in a 96 well plate. Cells were treated with DMSO or compounds for 72 hours using concentration ranges of 0.01-10 μM. Each concentration was tested in 4 replicates. To determine the growth kinetics, 10 μl of Alamar Blue® or PrestoBlue (Invitrogen) was added to each well and incubated for 4 hours. Readout was taken using Tecan F500 (Tecan) multiplate reader or Varioskan LUX (ThermoFisher) multiplate reader.
(§2) In order to determine anti-cancer potency of compounds compared to 6-(4-tert-butylphenoxy)pyridin-3-amine (described in WO2013/093885), NOTCH positive/driven human T cell acute lymphoblastic leukemia cell line RPMI 8402 was treated with selected compounds.
In general terms: Alamar Blue is a resazurin reagent that responds to reducing activity.

For assay [2] the test system is unchanged. The experiment in a line: PrestoBlue anti-proliferative assay. The format is cell-based. The note with it: for pIC50: Homo sapiens, RPMI 8402, RPMI8402, 72 hours, concentration range 0.03-100 μM; for fold change compared to 6-(4-tert-butylphenoxy)pyridin-3-amine (anti-proliferative IC50): RPMI8402, 72 hours. The procedure: as §1
Proliferation assays were performed by seeding 5000 cells/well in a 96 well plate. […] Each concentration was tested in 4 replicates. To determine the growth kinetics, 10 μl of Alamar Blue® or PrestoBlue (Invitrogen) was added to each well and incubated for 4 hours. Readout was taken using Tecan F500 (Tecan) multiplate reader or Varioskan LUX (ThermoFisher) multiplate reader.
as §2

The test system of the next assay is cMYC. As to the kind of experiment: Jess western blot of RPMI8402 protein lysates: cMYC. Type of assay: cell-based, human. The note with it: RPMI8402, 1 μM, 24 hours, 37° C. The method, then:
(§3) One million human NOTCH positive T-ALL cell line RPMI8402 were treated with NOTCH targeting compounds at 1 μM concentration for 24 hours. Following treatment cells were harvested and washed with 1×PBS. Total RNA and total protein lysates were extracted as described below.
(§4) Cells were lysed in RIPA buffer (50 mM Tris·Cl, pH 7.5, 150 mM NaCl, 1% nonidet P-40, 0.5% sodium deoxycholate and 0.1% SDS) for 30 minutes at 4° C. Lysed cells were centrifuged to remove the debris at 14000 rpm at 4° C. Supernatant was transferred to a new eppendorf tube. The protein concentration was determined by Bradford assay using spectrophotometer (Ultrospec 3000 pro).
(§5) Later on western blotting was carried out using Jess (ProteinSimple, biotechne). Samples containing 0.8 μg protein was denatured in loading buffer containing DTT by heating at 95° C. for 5 minutes. Samples were run on 12-230 kDa gel matrix, with incubation time for primary and secondary antibodies of 1 hour and 30 minutes, respectively. Data were analysed using Compass for SW (ProteinSimple, biotechne) software.
(§6) Total protein lysates were analysed by Jess western blot analysis using N1-ICD (cleaved and active NOTCH1 Intracellular Domain), cMYC and GAPDH specific antibodies.

Assay [3] relates to N1-ICD (cleaved and active NOTCH1 Intracellular Domain). As to the kind of experiment: Jess western blot of RPMI8402 protein lysates: N1-ICD. Type of assay: cell-based, human. The note with it: RPMI8402, 1 μM, 24 hours, 37° C. The method, then: as §3, §4, §5, §6

pIC50: −log10 of the molar value.

One may read the pIC50 as the negative decadic logarithm of the IC50, by convention in mol/L. Read a high pIC50 as a low IC50. On to `CC(C)(C)c1ccc(Oc2ccc(N)cn2)cc1` [6-(4-tert-butylphenoxy)pyridin-3-amine, reference compound], for which the pIC50 in assay [1] and in assay [2] was 6.13 each time. Also, the “fold change compared to 6-(4-tert-butylphenoxy)pyridin-3-amine (anti-proliferative IC50)” value (from here on “fold change”) in assay [1] (RPMI8402, 72 hours) is “(1X) x”; in assay [2], “(1X) x”. The “Percentage improvement of compounds over 6-(4-tert-Butylphenoxy)pyridin-3-amine to downregulate NOTCH target genes (protein expression): cMYC” value (“Percentage improvement of compounds … cMYC” below) in the assay with cMYC came out at 100%. Further, the “Percentage improvement of compounds over 6-(4-tert-Butylphenoxy)pyridin-3-amine to downregulate NOTCH target genes (protein expression): N1-ICD” value (“Percentage improvement of compounds … N1-ICD” below) in assay [3] is given as 100%.
The molecule `CNc1ccc(Oc2ccc(-c3ccccc3)cc2)c(F)c1` [Example 6, 4-([1,1′-Biphenyl]-4-yloxy)-3-fluoro-N-methylaniline] gave a pIC50 in assay [1] of 6.15.
Still for that read-out and setting: in the case of `Nc1ccc(Oc2ccc(-c3ccccc3)cc2)cc1` [Example 7, 4-([1,1′-Biphenyl]-4-yloxy)aniline] it was 6.77; in that of `Nc1ccc(OCCc2cc(Oc3ccc(N)cn3)ccc2-c2ccccc2)cc1` [Example 22, 6-((2-(2-(4-Aminophenoxy)ethyl)-[1,1′-biphenyl]-4-yl)oxy)pyridin-3-amine], 6.04.
As to `CNc1ccc(Oc2ccc(-c3ccc(F)cc3)cc2)nc1` [Example 27, 6-((4′-Fluoro-[1,1′-biphenyl]-4-yl)oxy)-N-methylpyridin-3-amine], in assay [2], the pIC50 was 6.70 and the “fold change” value is “(3.7x)”. For the same molecule, the “Percentage improvement of compounds … cMYC” value with cMYC is on record as 183%. The “Percentage improvement of compounds … N1-ICD” value in assay [3] came to 197%.
For `Cc1nc(Oc2ccc(-c3ccc(F)cc3)cc2)ccc1N` [Example 28, 6-((4′-Fluoro-[1,1′-biphenyl]-4-yl)oxy)-2-methylpyridin-3-amine], in that order: > 7.52, “(>24x)”, 170% and 173%.
Consider `Cc1cc(Oc2ccc(-c3ccc(F)cc3)cc2)ncc1N` [Example 29, 6-((4′-Fluoro-[1,1′-biphenyl]-4-yl)oxy)-4-methylpyridin-3-amine], for which the “Percentage improvement of compounds … cMYC” value in the assay with cMYC came out at 183%. In addition, the “Percentage improvement of compounds … N1-ICD” value in assay [3] is listed as 192%.
For `Cc1nc(Oc2ccc(-c3ccccc3)nc2)ccc1N` [Example 30, 2-Methyl-6-((6-phenylpyridin-3-yl)oxy)pyridin-3-amine], in assay [2], the pIC50 was 6.35 and the “fold change” value is given as “(1.6x)”. For the same molecule, in the assay with cMYC, the “Percentage improvement of compounds … cMYC” value was 159%. For the same molecule, in assay [3], the “Percentage improvement of compounds … N1-ICD” value came to 159%.
With `Cc1cc(Oc2ccc(-c3ccccc3)nc2)ncc1N` [Example 31, 4-Methyl-6-((6-phenylpyridin-3-yl)oxy)pyridin-3-amine], in the assay with cMYC, the “Percentage improvement of compounds … cMYC” value stood at 108%. Moreover, in assay [3], the “Percentage improvement of compounds … N1-ICD” value amounted to 110%.
Take `Cc1nc(Oc2ccc(-c3cncs3)cc2)ccc1N` [Example 32, 2-Methyl-6-(4-(thiazol-5-yl)phenoxy)pyridin-3-amine]: in assay [2], the pIC50 was 6.30 and the “fold change” value is “(1.5x)”. Moreover, the “Percentage improvement of compounds … cMYC” value in the assay with cMYC stood at 133%. Besides, the “Percentage improvement of compounds … N1-ICD” value in assay [3] was determined as 136%.
Regarding `Cc1cc(Oc2ccc(-c3cncs3)cc2)ncc1N` [Example 33, 4-Methyl-6-(4-(thiazol-5-yl)phenoxy)pyridin-3-amine], in assay [2], the pIC50 was > 7.52 and the “fold change” value is “(>24x)”. Also, the “Percentage improvement of compounds … cMYC” value with cMYC worked out at 130%. Further, in assay [3], the “Percentage improvement of compounds … N1-ICD” value is 132%.
On the same counts, the results for `CNc1ccc(Oc2ccc(-c3cncs3)cc2)nc1` [Example 34, N-Methyl-6-(4-(thiazol-5-yl)phenoxy)pyridin-3-amine] are 6.82, “(4.9x)”, 115% and 114%.
For `Cc1nc(Oc2ccc(-c3nccs3)cc2)ccc1N` [Example 35, 2-Methyl-6-(4-(thiazol-2-yl)phenoxy)pyridin-3-amine], in that order: > 7.52, “(>24x)”, 130% and 132%.
Turning to `Cc1cc(Oc2ccc(-c3nccs3)cc2)ncc1N` [Example 36, 4-Methyl-6-(4-(thiazol-2-yl)phenoxy)pyridin-3-amine], in assay [2], the pIC50 was 7.30 and the “fold change” value is “(14.8x)”.
Take `Cc1ccccc1-c1ccc(Oc2ccc(N)c(C)n2)cc1C` [Example 37, 6-((2,2′-Dimethyl-[1,1′-biphenyl]-4-yl)oxy)-2-methylpyridin-3-amine]: the “Percentage improvement of compounds … cMYC” value with cMYC is reported as 138%. Further, the “Percentage improvement of compounds … N1-ICD” value in assay [3] amounted to 151%.
On the same counts, the results for `Nc1ccc(Cc2ccc(-c3ccc(F)cc3)cc2)cc1` [Example 59, 4-((4′-Fluoro-[1,1′-biphenyl]-4-yl)methyl)aniline] are 154% and 149%.
